Results from article PMC5519559, “Structure-Based Discovery of Small Molecule Inhibitors of Cariogenic Virulence” (Scientific Reports, 2017).

Assays:
GtfC [1] = target: T1, GtfC (Streptococcus mutans, UniProt P13470); test: Bio-layer interferometry (OctetRed96), […] binding model; supported by zymographic inhibition ([…] at […]); parameters: his-tagged catalytic domain, residues 295 aa–1103 aa
Target sequence in this assay (P13470 295-1103): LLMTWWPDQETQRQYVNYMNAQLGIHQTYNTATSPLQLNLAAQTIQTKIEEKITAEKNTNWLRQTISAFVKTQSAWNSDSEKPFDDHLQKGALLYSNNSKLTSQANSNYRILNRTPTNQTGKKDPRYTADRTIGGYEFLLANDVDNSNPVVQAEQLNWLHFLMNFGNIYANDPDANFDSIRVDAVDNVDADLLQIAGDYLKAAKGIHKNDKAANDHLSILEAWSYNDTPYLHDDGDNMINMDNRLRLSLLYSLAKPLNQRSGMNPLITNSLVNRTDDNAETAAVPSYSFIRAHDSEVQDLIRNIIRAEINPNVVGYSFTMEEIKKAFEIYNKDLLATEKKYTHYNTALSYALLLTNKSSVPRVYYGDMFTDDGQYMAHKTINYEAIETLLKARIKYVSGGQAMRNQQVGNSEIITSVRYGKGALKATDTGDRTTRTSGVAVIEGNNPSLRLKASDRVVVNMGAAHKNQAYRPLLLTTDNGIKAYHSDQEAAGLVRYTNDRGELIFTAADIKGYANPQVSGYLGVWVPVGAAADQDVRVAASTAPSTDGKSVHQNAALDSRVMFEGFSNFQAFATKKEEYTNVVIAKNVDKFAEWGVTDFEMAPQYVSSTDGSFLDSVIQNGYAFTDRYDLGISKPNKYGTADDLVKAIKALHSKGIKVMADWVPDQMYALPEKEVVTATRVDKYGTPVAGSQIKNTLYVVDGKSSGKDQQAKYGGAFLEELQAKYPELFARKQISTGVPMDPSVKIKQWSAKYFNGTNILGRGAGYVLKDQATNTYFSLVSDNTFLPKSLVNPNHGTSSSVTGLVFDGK

GtfB [2] = target: T2, GtfB (Streptococcus mutans, UniProt P08987); test: as above; parameters: his-tagged catalytic domain, residues 268 aa–1074 aa
Target sequence in this assay (P08987 268-1074): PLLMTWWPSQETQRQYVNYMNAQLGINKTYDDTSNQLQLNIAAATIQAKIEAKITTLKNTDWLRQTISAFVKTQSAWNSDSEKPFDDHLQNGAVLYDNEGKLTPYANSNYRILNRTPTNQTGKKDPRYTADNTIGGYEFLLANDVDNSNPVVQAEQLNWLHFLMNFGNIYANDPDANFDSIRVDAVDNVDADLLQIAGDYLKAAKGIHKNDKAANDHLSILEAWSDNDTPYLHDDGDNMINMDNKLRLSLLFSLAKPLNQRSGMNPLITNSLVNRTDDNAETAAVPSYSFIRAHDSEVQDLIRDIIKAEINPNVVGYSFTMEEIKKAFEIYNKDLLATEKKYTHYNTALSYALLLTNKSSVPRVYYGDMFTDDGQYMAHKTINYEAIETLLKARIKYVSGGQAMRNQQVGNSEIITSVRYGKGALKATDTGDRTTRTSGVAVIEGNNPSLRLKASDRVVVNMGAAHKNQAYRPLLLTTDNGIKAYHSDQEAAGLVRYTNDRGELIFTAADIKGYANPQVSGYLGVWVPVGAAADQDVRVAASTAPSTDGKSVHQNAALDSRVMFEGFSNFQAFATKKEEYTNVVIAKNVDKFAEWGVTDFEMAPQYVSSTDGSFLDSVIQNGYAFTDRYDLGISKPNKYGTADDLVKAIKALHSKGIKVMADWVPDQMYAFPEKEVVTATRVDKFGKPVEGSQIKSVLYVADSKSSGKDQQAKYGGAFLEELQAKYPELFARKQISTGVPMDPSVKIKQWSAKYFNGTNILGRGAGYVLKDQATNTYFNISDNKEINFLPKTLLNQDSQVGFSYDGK

GtfB [3] = target: T2, GtfB; test: Binding study (Octet, details in supplement); weak inactive analog; parameters: catalytic domain, residues 268 aa–1074 aa
Target sequence in this assay (P08987 268-1074): as above

GtfB [4] = target: T2, GtfB; test: SDS-PAGE in-gel zymographic glucan-production assay at […]; assay type: cell-based; parameters: native GtfB from culture supernatant of S. mutans GtfCD double mutant; settings: read-out: % inhibition at 25 μM
Target sequence in this assay (P08987 35-1476): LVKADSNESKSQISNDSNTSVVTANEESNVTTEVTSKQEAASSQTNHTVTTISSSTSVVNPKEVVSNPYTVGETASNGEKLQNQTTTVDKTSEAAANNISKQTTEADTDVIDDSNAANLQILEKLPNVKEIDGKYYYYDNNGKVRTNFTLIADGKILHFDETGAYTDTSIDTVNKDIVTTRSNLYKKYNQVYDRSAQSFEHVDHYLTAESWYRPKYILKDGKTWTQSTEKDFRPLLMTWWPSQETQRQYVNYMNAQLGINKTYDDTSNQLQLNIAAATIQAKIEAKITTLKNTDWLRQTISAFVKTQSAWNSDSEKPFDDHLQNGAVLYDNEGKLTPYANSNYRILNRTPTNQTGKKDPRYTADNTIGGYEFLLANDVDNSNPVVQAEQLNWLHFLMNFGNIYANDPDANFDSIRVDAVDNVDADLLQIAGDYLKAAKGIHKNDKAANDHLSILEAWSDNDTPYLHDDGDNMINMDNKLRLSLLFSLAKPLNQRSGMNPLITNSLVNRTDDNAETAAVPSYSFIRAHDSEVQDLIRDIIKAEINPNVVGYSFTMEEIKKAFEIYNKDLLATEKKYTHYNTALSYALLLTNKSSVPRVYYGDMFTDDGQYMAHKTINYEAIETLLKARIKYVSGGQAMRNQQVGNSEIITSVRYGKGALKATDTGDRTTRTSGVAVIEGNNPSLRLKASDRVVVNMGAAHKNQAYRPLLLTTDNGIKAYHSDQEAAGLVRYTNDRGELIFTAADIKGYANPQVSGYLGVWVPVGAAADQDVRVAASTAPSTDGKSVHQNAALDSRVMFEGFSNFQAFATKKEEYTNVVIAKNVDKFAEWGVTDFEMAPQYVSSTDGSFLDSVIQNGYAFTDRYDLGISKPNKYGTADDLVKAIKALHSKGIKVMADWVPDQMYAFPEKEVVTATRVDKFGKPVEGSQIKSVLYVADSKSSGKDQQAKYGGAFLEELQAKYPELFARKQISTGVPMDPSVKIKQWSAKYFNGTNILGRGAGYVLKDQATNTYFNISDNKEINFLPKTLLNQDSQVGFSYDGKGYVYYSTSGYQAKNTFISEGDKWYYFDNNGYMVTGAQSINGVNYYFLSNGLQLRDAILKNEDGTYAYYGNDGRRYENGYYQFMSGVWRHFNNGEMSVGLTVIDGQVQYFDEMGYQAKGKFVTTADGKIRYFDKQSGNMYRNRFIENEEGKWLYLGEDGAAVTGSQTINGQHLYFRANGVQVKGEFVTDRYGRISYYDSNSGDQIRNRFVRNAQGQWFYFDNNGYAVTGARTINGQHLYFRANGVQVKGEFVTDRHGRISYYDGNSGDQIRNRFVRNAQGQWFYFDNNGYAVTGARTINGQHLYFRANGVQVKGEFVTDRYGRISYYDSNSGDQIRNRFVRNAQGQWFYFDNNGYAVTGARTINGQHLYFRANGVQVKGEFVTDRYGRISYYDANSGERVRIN

GtfC [5] = target: T1, GtfC; test: as above; assay type: cell-based; parameters: native GtfC from culture supernatant of S. mutans GtfBD double mutant; settings: read-out: % inhibition at 25 μM
Target sequence in this assay (P13470 35-1455): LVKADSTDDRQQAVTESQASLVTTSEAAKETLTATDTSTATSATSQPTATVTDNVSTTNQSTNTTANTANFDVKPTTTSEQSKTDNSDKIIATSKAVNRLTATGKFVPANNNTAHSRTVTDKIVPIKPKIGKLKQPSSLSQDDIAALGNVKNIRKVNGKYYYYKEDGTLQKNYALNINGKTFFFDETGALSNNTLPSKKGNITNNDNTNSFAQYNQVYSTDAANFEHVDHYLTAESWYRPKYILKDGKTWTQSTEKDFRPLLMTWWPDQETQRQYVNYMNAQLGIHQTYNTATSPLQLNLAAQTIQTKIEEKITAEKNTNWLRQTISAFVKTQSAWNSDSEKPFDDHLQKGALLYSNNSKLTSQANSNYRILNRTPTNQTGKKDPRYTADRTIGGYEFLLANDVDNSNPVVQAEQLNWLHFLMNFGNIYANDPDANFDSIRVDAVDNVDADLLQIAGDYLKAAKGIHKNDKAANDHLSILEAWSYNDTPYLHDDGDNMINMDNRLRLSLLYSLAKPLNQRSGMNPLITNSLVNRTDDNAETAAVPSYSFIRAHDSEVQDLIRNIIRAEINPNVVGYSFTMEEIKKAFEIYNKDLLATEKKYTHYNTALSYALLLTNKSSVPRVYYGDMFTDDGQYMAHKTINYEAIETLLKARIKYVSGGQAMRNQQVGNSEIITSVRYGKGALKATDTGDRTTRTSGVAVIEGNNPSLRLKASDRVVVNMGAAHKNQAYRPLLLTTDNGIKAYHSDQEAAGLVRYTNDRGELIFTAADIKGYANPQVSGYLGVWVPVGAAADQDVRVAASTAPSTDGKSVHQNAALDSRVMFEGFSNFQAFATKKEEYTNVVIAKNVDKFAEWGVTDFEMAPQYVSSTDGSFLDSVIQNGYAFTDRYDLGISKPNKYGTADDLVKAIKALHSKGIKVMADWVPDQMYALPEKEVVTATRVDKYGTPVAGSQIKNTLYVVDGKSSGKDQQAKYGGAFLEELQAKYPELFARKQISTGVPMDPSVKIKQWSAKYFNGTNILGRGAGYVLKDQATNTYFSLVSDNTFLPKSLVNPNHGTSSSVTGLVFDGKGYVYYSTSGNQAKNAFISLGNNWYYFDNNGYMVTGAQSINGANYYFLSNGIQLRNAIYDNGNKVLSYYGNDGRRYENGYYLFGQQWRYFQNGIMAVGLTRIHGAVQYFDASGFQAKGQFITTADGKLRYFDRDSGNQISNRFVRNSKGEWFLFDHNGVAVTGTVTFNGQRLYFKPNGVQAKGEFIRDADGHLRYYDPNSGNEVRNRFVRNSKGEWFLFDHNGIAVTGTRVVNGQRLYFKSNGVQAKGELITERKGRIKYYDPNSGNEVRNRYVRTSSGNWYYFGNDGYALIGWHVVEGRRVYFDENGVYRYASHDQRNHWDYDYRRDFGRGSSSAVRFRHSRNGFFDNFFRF

Structure (SMILES): NC(=O)c1ccccc1NC(=O)c1cc2cc([N+](=O)[O-])ccc2s1 [#G43]
- Kd (GtfC [1]): 46.9 nM
- Kd (GtfB [2]): 3.7 µM

Structure (SMILES): O=C(Nc1ccccc1)c1cc2cc([N+](=O)[O-])ccc2s1 [#G43-D]
- Kd (GtfB [3]): 68 µM

Structure (SMILES): O=C(c1ccc(F)cc1)c1ccc(-c2[nH]c(-c3ccc([N+](=O)[O-])cc3O)nc2-c2ccccc2)cc1 [#G16]
- inhibition at 25 µM (GtfB [4]): ~60%
- inhibition at 25 µM (GtfC [5]): ~70%
